From BindingDB's records for doi:10.1021/jm0304358 (Yale University, 2004) come the findings set out here.

Molecules are shown by their SMILES. Where only a bound is given, the exact number is not on record here.

The target in this assay is Cyclin-dependent kinase 2 (Homo sapiens, UniProt P24941). Briefly: Evaluated for inhibition of human cyclin dependent kinase 2 (CDK2).
As a reminder, the IC50 is the concentration that gives 50% inhibition. `Cc1cc(Cl)cc2c1NC(=O)C2C=Nc1ccc(S(N)(=O)=O)cc1` (stereo not given): the half-inhibitory concentration (IC50) was greater than 10000 nM.

Regarding `Cc1cccc2c1NC(=O)C2C=Nc1ccc(S(N)(=O)=O)cc1` (stereo not given), the half-inhibitory concentration (IC50) was greater than 10000 nM.

As for `CN(C)c1ccc2c(c1)C(C=Nc1ccc(S(N)(=O)=O)cc1)C(=O)N2` (stereo not given) [4-({[5-(Dimethylamino)-2-oxo-1,2-dihydro-3H-indol-3-ylidene]methyl}amino)benzenesulfonamide], the IC50 worked out at 310 nM.

For `O=C1Nc2ccc3ncsc3c2C1C=Nc1ccc(S(=O)(=O)NCc2ccccc2)cc1` (stereo not given) [N-Benzyl-4-{[(7-oxo-6,7-dihydro-8H-[1,3]thiazolo[5,4-e]-indol-8-ylidene)methyl]amino}benzenesulfonamide], the half-maximal inhibitory concentration (IC50) is 5.6 nM.

Compound `CNS(=O)(=O)c1ccc(N=CC2C(=O)Nc3ccc4ncsc4c32)cc1` (stereo not given) [N-Methyl-4-{[(7-oxo-6,7-dihydro-8H-[1,3]thiazolo[5,4-e]-indol-8-ylidene)methyl]amino}benzenesulfonamide] gave an IC50 of 5.6 nM.
